{"source": "patent US5216014A", "about": "“Furo-coumarinsulfonamides as protein kinase C inhibitors” (Sphinx Pharmaceuticals Corporation, priority 1991, dated 1993)", "key": {"protein kinase C": {"target": "protein kinase C", "test": "Protein Kinase C Inhibition (PKC assay, histone H1 phosphorylation)", "format": "biochemical", "conditions": "10 minutes; histone H1 substrate; rat brain enzyme", "description": "The protein kinase C (PKC) assay is designed to duplicate the in vivo conditions required for protein kinase C function. Therefore, pH, salt and cofactor concentrations are similar to physiologic levels. A lysine rich histone H1 is used in the assay as the phosphorylation acceptor protein because it is readily available and serves as a good substrate for protein kinase C. Enzyme is prepared from rat brain and is purified to apparent homogeneity as determined by a single band on silver stained sodium dodeceyl sulfate (SDS)-polyacrylamide.\nIn the screening assay, phosphatidylserine (PS) and diacylglycerol (DAG) are co-sonicated to form unilamellar and multilamellar vesicles. The concentrations of lipids in the assay are suboptimal to maximize the detection potential for inhibitors. Potential inhibitor compounds are added to the assay in dimethylsulfoxide (DMSO) at three concentrations to give final inhibitor concentrations of 4.3, 43 and 218 μm, respectively. The assay is started with the addition of enzyme and stopped after 10 minutes by the addition of a 25% trichloroacetic acid (TCA) solution and 1.0 mg/ml bovine serum albumin (BSA). The radioactive histone product is retained and washed on glass fiber filters that allow the unreacted ^32 P-ATP to pass through. The amount of phosphorylation is determined by the radioactivity as measured in a scintillation counter. Controls are included in every assay to measure: background activity in the absence of enzyme, activity in the absence of lipids, and the maximum enzyme activity with saturating levels of the activator lipids.\nHEPES is N-[2-hydroxyethyl] piperazine-N'-[2-ethanesulfonic acid] and EGTA is Ethylene-bis(oxyethylenenitrilo) tetraacetic acid.\nProtein kinase C assay results are shown in Table 3 in the column labeled PKC. Results are shown as IC50, which is the concentration of test compound needed to inhibit 50% of the protein kinase C activity as compared with levels of protein kinase C activity in controls."}, "neutrophils": {"system": "neutrophils", "test": "Neutrophil Superoxide Anion (O2 -) Release Assay", "format": "cell-based", "conditions": "Homo sapiens, 0.5 h, PMA-stimulated, 37° C. for 30 min", "description": "Neutrophils are isolated form whole blood collected from human volunteers. All reagent materials are obtained from Sigma Chemical Company with the exception of isotonic saline (Travenol Laboratories, Inc., Deerfield, Ill.) and lymphocyte separation medium (Organon Teknika, Durham, N.C.).\nWhole blood is drawn and mixed with sodium heparin (final conc. 10 units/ml) to prevent clotting. An equal volume of dextran (3.0%) in isotonic saline is added, mixed, and allowed to settle for 30 min to bind red blood cells (RBC). Supernatant is removed, underlayered with lymphocyte separation medium and centrifuged for 40 min at 400 xg in a centrifuge (Beckman GPR, Norcross, Ga.). The pellet is alternately resuspended in 0.2% and 1.6% NaCl to lyse RBCs before washing with Hank's Balanced Salt Solution (HBSS). The washed pellet is resuspended in 10 ml HBSS and placed on ice before counting on a hemacytometer.\nThe neutrophil cell concentration is adjusted to 2×10^6 cells/ml with HBSS before adding 0.8 ml cells to 12×75 mm polypropylene test tubes (Fisher Scientific). Test agents are diluted to determine dose response and added at 10X final concentration at a volume of 0.1 ml/tube in duplicate. Then 10X concentrations of cytochrome C (15 mg/ml) with catalase (3000 units/ml) either alone or containing 25 ng/ml phorbol 12-myristate 13-acetate (PMA) are added at a volume of 0.1 ml/tube and incubated at 37° C. for 30 min before stopping the reaction by placing tubes on ice. Tubes are then centrifuged at 900 xg for 10 min, 0.5 ml supernatant is removed and added to 0.5 ml H2 O in a microcuvette. Optical density (OD) of cytochrome c is read in a spectrophotometer (Shimadzu) at 550 nm. The ΔOD of cytochrome c is obtained between PMA-stimulated and non-stimulated tubes, and the dose responses of the test agents are compared to the positive controls (which contain HBSS in place of test agents). PMA stimulates O2 production which reduces cytochrome c. Reducing cytochrome c increases its absorbance, and the change in OD of cytochrome c is proportional to the amount of O2 produced by PMA stimulation. Inhibition of the O2 - burst by test compounds of the invention is seen as a reduction in the change in optical density. Inhibition is expressed as IC50 μM and is the amount of test compound that will inhibit fifty percent of the PMA-stimulated respiratory burst, i.e. O2 production."}, "[1]": {"system": "human keratinocytes (NHEK cells)", "test": "Human Keratinocyte Inhibition (3H-thymidine incorporation)", "format": "cell-based", "description": "Proliferating keratinocytes (NHEK cells purchased from Clonetics, Inc., San Diego, Calif.) in second passage were grown in Keratinocyte Growth Medium (KGM) (Clonetics, Inc.) Cells are trypsinized (0.025% trypsin, Clonetics), counted with a hemacytometer (Scientific Products), and seeded at a concentration of 2,500 cells/well in a 96 well microtiter plate. After allowing cells to attach to the surface overnight, the culture medium is aspirated and replaced with […] of fresh KGM. Test agents are evaluated and IC50,s are ^3 H-thymidine determined according to the ^3 H-thymidine incorporation procedures described as in Example 8. IC50 is the concentration of test compound required to inhibit fifty percent of the incorporation of H-thymidine into proliferating cells not exposed to test agent."}, "[2]": {"test": "Solubility remark in tumor cell growth test", "format": "physicochemical", "design": "key: *: indicates that the compound was too insoluble to test", "conditions": "footnote mark in Table 6"}, "[3]": {"target": "cAMP dependent protein kinase (PKA)", "test": "cAMP Dependent Protein Kinase (PKA) Assay", "format": "biochemical", "conditions": "10 min; catalytic subunit of PKA", "description": "Compounds found to be inhibitors of protein kinase C activity are tested for inhibitory activity against protein kinase (PKA). This enzyme, like protein kinase C, plays an important role in cell-cell communication and is activated by a second messenger, cAMP. Secondary screening against PKA is useful for ascertaining the selectivity of the compounds of the invention. A cAMP dependent protein kinase assay utilizes a catalytic subunit of PKA (Sigma Chemical Company, St. Louis, Missouri) that is mixed with buffer before addition of the inhibitor in dimethylsulfoxide (DMSO). The assay is started by the addition of ^32 P-ATP and the reaction is allowed to proceed for 10 min before stopping with 25% trichloroacetic acid (TCA) and 1.0 mg/ml bovine serum albumin (BSA). The phosphorylated protein is isolated by filtration and the radioactivity is counted in a beta scintillation counter.\nPKA assay results are shown in Table 5 in the column labeled PKA. […] The tested compounds of the invention are selective for protein kinase C, and have no effect on cAMP dependent protein kinase. This is seen by a comparison of Tables 3 and 5. […] Thus, the compounds of the invention should have minimal or no effect on the metabolic pathways associated with stimulation of protein kinase by cAMP."}, "MCF-7": {"system": "MCF-7", "test": "Human Tumor Cell Growth Inhibition (3H-thymidine uptake)", "format": "cell-based", "conditions": "MCF7; MCF-7 human breast tumor cell line; 18-24 hrs; read-out: MCF-7 (IC50, 3H-thymidine incorporation)", "excerpt": "MCF-7 a human breast tumor cell line and MCF-7/ADR an adriamycin resistant line of MCF-7 cells were obtained from the National Cancer Institute, Frederick, Md. CEM cells (ATCC accession number CCL 119) were obtained from the American Type Culture Collection, Rockville, Md.\nHuman tumor cells are trypsinized (0.05% trypsin, GIBCO), counted with a hemacytometer and seeded at a concentration of 10,000 cells/well in a 96 well microtiter plate. After allowing cells to attach to the surface overnight, the culture medium is aspirated and replaced with 100 μl of fresh medium. Test agents are diluted to determine dose response at 2X final concentration and added in quadruplicate at 100 μl/well to bring the total volume of each well to 200 μl. The microtiter plate is then incubated at 3 37° C. 5% CO2 overnight (18-24 hrs) before ^3 H-thymidine is added at a concentration of 0.5 μCi/well in 50 μl culture medium. The plate is incubated again for 4 hrs under the same conditions as above. Supernatant is then aspirated and 50 μl trypsin (0.05%, GIBCO) is added to each well. Cells are checked microscopically to determine detachment from surfaces, and plates are then harvested with a cell harvester (PHD, Cambridge Technology, Inc.) Filter papers corresponding to wells are placed in scintillation vials and counted to determine the amount of ^3 H-thymidine incorporated by the cells. […]"}}}
{"compound": "COc1c2occc2c(S(=O)(=O)NCCCNCCCCNCCCN)c2ccc(=O)oc12", "note": "[Compound 1, N-[3-[4-(3-amino-1-propyl)-amino-1-butyl]-amino-1-propyl]-s-methyl-furo[3,2-g]coumarin-5-sulfonamide]", "values": [{"measurement": "IC50", "setting": "protein kinase C", "result": 30, "unit": "µM"}, {"measurement": "IC50", "setting": "neutrophils", "result": "> 10", "unit": "µM"}, {"measurement": "IC50", "setting": "[1]", "result": 11.9, "unit": "µM"}, {"measurement": "MCF-7: too insoluble to test", "setting": "[2]", "result": "*"}, {"measurement": "IC50", "setting": "[3]", "result": "> 218", "unit": "µM"}]}
{"compound": "COc1c2occc2c(S(=O)(=O)NCCCNCCCCNCCCNS(=O)(=O)c2c3ccoc3c(OC)c3oc(=O)ccc23)c2ccc(=O)oc12", "note": "[Compound 2]", "values": [{"measurement": "IC50", "setting": "protein kinase C", "result": 24, "unit": "µM"}, {"measurement": "IC50", "setting": "neutrophils", "result": "> 10", "unit": "µM"}, {"measurement": "IC50", "setting": "[1]", "result": 1.4, "unit": "µM"}, {"measurement": "MCF-7: too insoluble to test", "setting": "[2]", "result": "*"}, {"measurement": "IC50", "setting": "[3]", "result": "> 218", "unit": "µM"}]}
{"compound": "COc1c2occc2c(S(=O)(=O)NCCCCNCCCNS(=O)(=O)c2c3ccoc3c(OC)c3oc(=O)ccc23)c2ccc(=O)oc12", "note": "[Compound 3]", "values": [{"measurement": "IC50", "setting": "protein kinase C", "result": 21, "unit": "µM"}, {"measurement": "IC50", "setting": "MCF-7", "result": 5.5, "unit": "µM"}, {"measurement": "IC50", "setting": "neutrophils", "result": "> 10", "unit": "µM"}, {"measurement": "IC50", "setting": "[1]", "result": 15.4, "unit": "µM"}, {"measurement": "IC50", "setting": "[3]", "result": "> 218", "unit": "µM"}]}
{"compound": "COc1c2occc2c(S(=O)(=O)NCCCN(C)CCCNS(=O)(=O)c2c3ccoc3c(OC)c3oc(=O)ccc23)c2ccc(=O)oc12", "note": "[Compound 4]", "values": [{"measurement": "IC50", "setting": "protein kinase C", "result": 17, "unit": "µM"}, {"measurement": "IC50", "setting": "MCF-7", "result": 11, "unit": "µM"}, {"measurement": "IC50", "setting": "neutrophils", "result": "> 10", "unit": "µM"}, {"measurement": "IC50", "setting": "[1]", "result": 9.5, "unit": "µM"}, {"measurement": "IC50", "setting": "[3]", "result": "> 218", "unit": "µM"}]}
{"compound": "COc1c2occc2c(S(=O)(=O)NCCCNCCCNS(=O)(=O)c2c3ccoc3c(OC)c3oc(=O)ccc23)c2ccc(=O)oc12", "note": "[Compound 5]", "values": [{"measurement": "IC50", "setting": "protein kinase C", "result": 33, "unit": "µM"}]}
